# Values quoted from earlier work as cited in US20220031669A1, “Compositions for Broad Spectrum Topical Antimicrobials” (priority 2020, published 2022).
# Details: thiol group of acetylcysteine
compound,measurement,value
CC(=O)N[C@@H](CS)C(=O)O [acetylcysteine],pKa of SH,9.4
